Key:
F1F0-ATPase = molecular target: T1, F1F0-ATPase (Bos taurus, UniProt P13621); test: Inhibition of F1F0-ATPase activity in synthesizing ATP; type: biochemical; details: inhibition of ATP synthesis; read-out: ATP Syn IC50
T1 construct: from tissue
Method: (§1) The compounds listed in Table 4 were tested for activity against F1F0-ATPase by measuring the ability of the compounds to inhibit ATP synthesis. In addition, the compounds were assessed for cytotoxicity in Ramos cells Inhibition of F1F0-ATPase activity in synthesizing ATP and cytotoxicity in Ramos cells were measured according to the procedures described in K. M. Johnson et al. Chemistry & Biology 2005, 12, 485-496.

Ramos cells = test: Cytotoxicity in Ramos cells; type: cell-based; details: Homo sapiens, read-out: Ramos Cell EC50
Method: as §1

| Structure (SMILES) | IC50 (F1F0-ATPase) | EC50 (Ramos cells) |
| --- | --- | --- |
| O=C(/N=C(\Nc1cccc(C(F)(F)F)c1)Nc1cccc(O)n1)c1ccc(C(F)(F)F)cc1 [Compound A-1] | < 10 µM | < 10 µM |
| O=C(/N=C(/Nc1cc(F)cc(Cl)c1)Nc1cccc(O)n1)c1ccc(C(F)(F)F)cc1 [Compound A-2] | < 10 µM | < 10 µM |
| O=C(/N=C(/Nc1cccc(C(F)(F)F)c1)Nc1cccc(O)n1)c1ccc(F)c(F)c1 [Compound A-3] | < 10 µM | < 10 µM |
| O=C(/N=C(/Nc1cc(F)cc(Cl)c1)Nc1cccc(O)n1)c1ccc(F)c(F)c1 [Compound A-4] | < 10 µM | < 10 µM |
| O=C(/N=C(/Nc1ccc(F)c(Cl)c1)Nc1cccc(O)n1)c1ccc(C(F)(F)F)cc1 [Compound A-5] | < 10 µM | < 10 µM |
| O=C(/N=C(\Nc1cccc(O)n1)Nc1ccccc1C1CC1)c1ccc(C(F)(F)F)cc1 [Compound A-6] | < 10 µM | < 10 µM |
| O=C(N/C(=N\c1cccc(O)n1)Nc1cccc(Cl)c1)c1ccc(C(F)(F)F)cc1 [Compound A-7] | < 10 µM | < 10 µM |
| O=C(N/C(=N\c1cccc(O)n1)Nc1cc(F)cc(Cl)c1)c1ccc(Cl)cc1 [Compound A-8] | < 10 µM | < 10 µM |
| O=C(N/C(=N\c1cccc(O)n1)Nc1ccc(F)c(Cl)c1)c1ccc(F)c(F)c1 [Compound A-9] | > 10 µM | > 10 µM |
| CN(/C(=N\C(=O)c1ccc(F)c(F)c1)Nc1cccc(O)n1)c1ccc(F)c(Cl)c1 [Compound A-10] | > 10 µM | > 10 µM |
| O=C(/N=C(\Nc1cccc(O)n1)Nc1ccc(F)cc1C1CC1)c1ccc(F)c(F)c1 [Compound A-11] | < 10 µM | < 10 µM |
| O=C(/N=C(\Nc1cccc(O)n1)Nc1ccc(F)cc1C1CC1)c1ccc(C(F)(F)F)cc1 [Compound A-12] | < 10 µM | < 10 µM |
| CC(C)(C)c1ccccc1N/C(=N/C(=O)c1ccc(F)c(F)c1)Nc1cccc(O)n1 [Compound A-13] | < 10 µM | < 10 µM |
| CC(C)(C)c1ccccc1N/C(=N/C(=O)c1ccc(C(F)(F)F)cc1)Nc1cccc(O)n1 [Compound A-14] | < 10 µM | < 10 µM |
| O=C(/N=C(/Nc1cccc(C(F)(F)F)c1)Nc1cccc(O)n1)c1ccc(Cl)cc1 [Compound A-15] | < 10 µM | < 10 µM |
| O=C(/N=C(/Nc1cccc(C(F)(F)F)c1)Nc1cccc(O)n1)c1cccc(Cl)c1 [Compound A-16] | < 10 µM | < 10 µM |

| Structure (SMILES) | IC50 (F1F0-ATPase) | EC50 (Ramos cells) |
| --- | --- | --- |
| O=C(/N=C(/Nc1cccc(C(F)(F)F)c1)Nc1cccc(O)n1)c1cccc(C(F)(F)F)c1 [Compound A-17] | < 10 µM | < 10 µM |
| O=C(/N=C(/Nc1cccc(C(F)(F)F)c1)Nc1cccc(O)n1)c1ccc(Cl)c(F)c1 [Compound A-18] | < 10 µM | < 10 µM |
| O=C(/N=C(/Nc1cccc(Cl)c1)Nc1cccc(O)n1)c1cccc(Cl)c1 [Compound A-19] | < 10 µM | < 10 µM |
| O=C(/N=C(/Nc1cccc(Cl)c1)Nc1cccc(O)n1)c1cccc(C(F)(F)F)c1 [Compound A-20] | < 10 µM | < 10 µM |
| O=C(/N=C(/Nc1cc(F)cc(Cl)c1)Nc1cccc(O)n1)c1cccc(Cl)c1 [Compound A-21] | < 10 µM | < 10 µM |
| O=C(/N=C(/Nc1cc(F)cc(Cl)c1)Nc1cccc(O)n1)c1cccc(C(F)(F)F)c1 [Compound A-22] | < 10 µM | < 10 µM |
| O=C(/N=C(/Nc1cc(F)cc(Cl)c1)Nc1cccc(O)n1)c1ccc(Cl)c(F)c1 [Compound A-23] | < 10 µM | < 10 µM |
| O=C(/N=C(/Nc1cccc(Cl)c1)Nc1cccc(O)n1)c1ccc(F)c(F)c1 [Compound A-24] | < 10 µM | < 10 µM |
| O=C(/N=C(/Nc1cccc(Cl)c1)Nc1cccc(O)n1)c1ccc(Cl)cc1 [Compound A-25] | < 10 µM | > 10 µM |
| O=C(/N=C(/Nc1cccc(C2CC2)c1)Nc1cccc(O)n1)c1ccc(C(F)(F)F)cc1 [Compound A-26] | < 10 µM | < 10 µM |
| O=C(/N=C(/NCc1ccc(F)c(Cl)c1)Nc1cccc(O)n1)c1ccc(F)c(F)c1 [Compound A-27] | < 10 µM | < 10 µM |
| O=C(/N=C(/NCc1ccc(F)c(Cl)c1)Nc1cccc(O)n1)c1ccc(C(F)(F)F)cc1 [Compound A-28] | < 10 µM | < 10 µM |
| CC1CCC(N/C(=N/C(=O)c2ccc(C(F)(F)F)cc2)Nc2cccc(O)n2)CC1 (stereo not shown) [Compound A-29] | < 10 µM | < 10 µM |
| O=C(/N=C(\Nc1cccc(O)n1)NC1CCC(F)(F)CC1)c1ccc(C(F)(F)F)cc1 [Compound A-30] | < 10 µM | < 10 µM |
| O=C(/N=C(\Nc1cccc(O)n1)NC1CCC(F)(F)CC1)c1ccc(F)c(F)c1 [Compound A-31] | < 10 µM | < 10 µM |
| O=C(/N=C(/NCc1ccccc1C(F)(F)F)Nc1cccc(O)n1)c1ccc(C(F)(F)F)cc1 [Compound A-32] | < 10 µM | < 10 µM |

— patent US9370507B2, “Pyridonyl guanidine F1F0-ATPase inhibitors and therapeutic uses thereof” (Lycera Corporation, priority 2010, dated 2016)
